Legend:
Assay type in all cases: in vivo, NCR nude mice
NGP xenografts = assay: Tumor 2-D cross-sectional area by ultrasound, NGP xenografts; settings: NGP tumors, BV vs. control, 5 days
Procedure: (§1) The identity of the neuroblastoma cell lines NGP and SK-NEP-1 were verified by STR profiling. The cell lines were stably transfected with FUW-Luciferase plasmid and were selected and maintained in 1 mg/ml neomycin. 1×10^6 cells were injected intrarenally into 4-6 week old NCR female nude mice. The resulting xenografts were monitored for growth using bioluminescence. At a threshold corresponding to 1-2 g, tumors were randomized to control or treatment groups (cohort size 5-8 mice per modality and treatment groups). […] Animals were killed by CO2 inhalation at indicated time points (at day 5 after serial imaging studies, and at days 0, 1, 3, and 5 for control and lectin perfusion analyses). At euthanasia, mice were injected with fluorescein-labeled Lycopersicon esculentum lectin (100 μg/100 μl PBS). Vasculature was fixed by infusing 1% paraformaldehyde. 40-μm sections were cut using a vibratome, and digital images subjected to computer-assisted quantitative analysis of tumor vessel architecture.

NGP tumors [1] = assay: Fluorescein-labeled lectin perfusion analysis of tumor vasculature, NGP tumors; settings: BV-treated NGP tumors
Procedure: (§2) The identity of the neuroblastoma cell lines NGP and SK-NEP-1 were verified by STR profiling. The cell lines were stably transfected with FUW-Luciferase plasmid and were selected and maintained in 1 mg/ml neomycin. 1×10^6 cells were injected intrarenally into 4-6 week old NCR female nude mice. The resulting xenografts were monitored for growth using bioluminescence. At a threshold corresponding to 1-2 g, tumors were randomized to control or treatment groups (cohort size 5-8 mice per modality and treatment groups). BV (0.5 mg) was administered immediately after imaging on days 0 and 3. Animals were killed by CO2 inhalation at indicated time points (at day 5 after serial imaging studies, and at days 0, 1, 3, and 5 for control and lectin perfusion analyses). […] 40-μm sections were cut using a vibratome, and digital images subjected to computer-assisted quantitative analysis of tumor vessel architecture.
Quantified changes in lectin perfusion studies of tumor vasculature were consistent with changes detected by CEUS. […]
Computer-assisted image analysis was used to examine changes in specific vessel features. If vascular area is calculated from total pixels, large-diameter vessels contributed disproportionately to MVD as compared to fine capillaries. To more closely estimate numbers of vessels, total length can be calculated by skeletonizing images and then scoring these by computer. […]

SK-NEP-1 tumors [2] = assay: CEUS perfusion imaging (relative microbubble perfusion), SK-NEP-1 tumors; settings: SK-NEP-1 cohorts, days 0 to 5, linear mixed-effects model
Procedure: as §2, with “architecture. […]” for “architecture.”
Mice were anesthetized and placed on a physiological monitoring platform, and their tail veins were catheterized for injections using a 27-gauge, ½-inch butterfly catheter. […] Contrast enhancement was detected using background subtraction from reference videos acquired before the microbubble injection. […] Relative microbubble perfusion (rmp) was defined as the maximum signal enhancement and determined by regression of a monoexponential function to the time-intensity curve during microbubble uptake. […]

SK-NEP-1 xenografts = assay: Tumor 2-D cross-sectional area by ultrasound, SK-NEP-1 xenografts
Procedure: (§3) To evaluate vascular response (blood volume, perfusion, and molecular expression), two human cancer cell lines (SK-NEP and NGP) were implanted in nude mice and allowed to develop for five weeks. High-frequency ultrasound imaging of the tumors was performed at 40 MHz using a Visualsonics Vevo 770 during bolus tail-vein injections of size-selected microbubble suspensions. […] The bolus was […] and the concentration was 5×10^8 microbubbles/mL. The change in intensity of the ultrasound signal was used to determine the relative blood volume. Targeted microbubbles bearing cyclic RGD-peptides (or cyclic RAD-peptides for the control microbubbles) were used to measure the level of active angiogenesis. The mice were imaged at 0, 1, 3, and 5 days. Immediately after the imaging sessions on days 0 and 3, 0.2 cc of BV (2.5 mg/mL) was administered to the mice. After day 5, the mice were euthanized, and their tumors excised for ex vivo analysis.
The identity of the neuroblastoma cell lines NGP and SK-NEP-1 were verified by STR profiling. […] The resulting xenografts were monitored for growth using bioluminescence. […] 40-μm sections were cut using a vibratome, and digital images subjected to computer-assisted quantitative analysis of tumor vessel architecture.
Xenografts formed in the kidney of NCR nude mice with the human Ewing family tumor cell line SK-NEP-1 are highly sensitive to VEGF blockade therapy, while human neuroblastoma NGP cell lines are much less responsive to VEGF blockade therapy. The intrarenally implanted xenograft tumors were monitored for growth and randomly assigned to biweekly injections of anti-VEGF antibody BV or vehicle. […] To confirm the characterization of responsiveness, 2-D tumor area was measured by ultrasonography, the results of which are shown in FIG. 11.
The tumor 2-D cross-sectional area was determined from the ultrasound images using Visualsonics software. Area measurements of the tumor were calculated from the ultrasound images using a ROI that encompassed the hypoechoic region of the kidney (tumor tissue). […]

SK-NEP-1 tumors [3] = assay: Ultrasound molecular imaging with RGD-microbubbles (relative targeted microbubble adhesion, αvβ3 integrin), SK-NEP-1 tumors
Procedure: as §1

SK-NEP-1 tumors [4] = assay: Fluorescein-labeled lectin perfusion analysis of tumor vasculature, SK-NEP-1 tumors
Procedure: as §1
After binarization of the images, microvessel density (MVD) was estimated by the total number of white pixels per field. The results shown in FIGS. 10A-10B are as the mean pixel count per image +SD.
Computer-assisted image analysis was used to examine changes in specific vessel features. […] To more closely estimate numbers of vessels, total length can be calculated by skeletonizing images and then scoring these by computer. […] New vascular branches can form a dynamic and relatively VEGF-dependent element in angiogenic networks.

NGP tumors [5] = assay: CEUS perfusion imaging (relative microbubble perfusion), NGP tumors; settings: for increase in mean rmp: BV-treated NGP tumors
Procedure: The identity of the neuroblastoma cell lines NGP and SK-NEP-1 were verified by STR profiling. The cell lines were stably transfected with FUW-Luciferase plasmid and were selected and maintained in 1 mg/ml neomycin. 1×10^6 cells were injected intrarenally into 4-6 week old NCR female nude mice. The resulting xenografts were monitored for growth using bioluminescence. At a threshold corresponding to 1-2 g, tumors were randomized to control or treatment groups (cohort size 5-8 mice per modality and treatment groups). BV (0.5 mg) was administered immediately after imaging on days 0 and 3. Animals were killed by CO2 inhalation at indicated time points (at day 5 after serial imaging studies, and at days 0, 1, 3, and 5 for control and lectin perfusion analyses). At euthanasia, mice were injected with fluorescein-labeled Lycopersicon esculentum lectin (100 μg/100 μl PBS). Vasculature was fixed by infusing 1% paraformaldehyde. 40-μm sections were cut using a vibratome, and digital images subjected to computer-assisted quantitative analysis of tumor vessel architecture.
Size-selected microbubbles described above were used for perfusion and molecular imaging. Lipid-coated, perfluorobutane-filled microbubbles were produced by mechanical agitation. For targeting, a maleimide group was included on the distal end of the polyethylene glycol group on the lipopolymer used to coat the microbubbles. Residual lipid was removed and 4.5-μm median diameter microbubbles were isolated by centrifugation. Targeted microbubbles were then conjugated to cysteine-tagged RGD (target) or RAD (control) peptides and washed again to remove residual peptide. RGD conjugation was confirmed by HPLC and MALDI-TOF. Ultrasound imaging was performed using a small-animal ultrasound scanner with a 30-MHz transducer.
Mice were anesthetized and placed on a physiological monitoring platform, and their tail veins were catheterized for injections using a 27-gauge, ½-inch butterfly catheter. The transducer was positioned at the tumor midsection, and 2-D ultrasound images were acquired using a field of view of 17×17 mm. A 50-μL bolus (2.5×10^7 microbubbles) followed by a 15-μL saline flush were injected while imaging at the maximum frame rate for respiratory gating (˜11 frames/second) and 100% power. Maximum intensity persistence (MIP) images were acquired using non-targeted RAD-microbubbles. Contrast enhancement was detected using background subtraction from reference videos acquired before the microbubble injection. […] Relative microbubble perfusion (rmp) was defined as the maximum signal enhancement and determined by regression of a monoexponential function to the time-intensity curve during microbubble uptake. […]

NGP tumors [6] = assay: Ultrasound molecular imaging with RGD-microbubbles (relative targeted microbubble adhesion, αvβ3 integrin), NGP tumors; settings: exponential decay model, days 0-5
Procedure: as §3, with “The mice were imaged at 0, 1, 3, and 5 days. Immediately after the imaging sessions on days 0 and 3, 0.2 cc of BV (2.5 mg/mL) was administered to the mice. After day 5, the mice were euthanized, and their tumors excised for ex vivo analysis.” left out
The identity of the neuroblastoma cell lines NGP and SK-NEP-1 were verified by STR profiling. […] The resulting xenografts were monitored for growth using bioluminescence. […] 40-μm sections were cut using a vibratome, and digital images subjected to computer-assisted quantitative analysis of tumor vessel architecture. […]
For molecular ultrasound imaging, a series of lower frequency pulses was applied to destroy microbubbles in the field of view 10 minutes after microbubble injection. […] The relative targeted microbubble adhesion (rtma) was measured as the difference in the linearized grayscale pixel intensities within the ROI for targeted RGD-microbubbles, minus that for RAD-microbubbles. […]

bevacizumab [BV] was tested, and the tumor growth (NGP xenografts) was “unaffected”, the “microvessel density (MVD) compared to day 0 controls” value (NGP tumors [1]) was “did not change” and the “slopes of the linear regression of rmp, BV-treated vs control” value (SK-NEP-1 tumors [2]) was “statistically different”. For the same substance, the “changes in tumor size” value (SK-NEP-1 xenografts; SK-NEP tumor-bearing mice, 0.2 cc BV (2.5 mg/mL) on days 0 and 3) was “no significant changes”, the “change in tumor 2-D cross-sectional area (ultrasound)” value (SK-NEP-1 xenografts; SK-NEP-1 mice, BV 0.5 mg on days 0 and 3, over the 5 day period) was −5% and the “tumor growth in comparison to control” value (SK-NEP-1 xenografts; SK-NEP-1 xenografts, days 3 and 5) was “significantly arrested tumor growth”. For the same substance, the “reduction of the difference in image intensity (before/after destruction pulse)” value (SK-NEP-1 tumors [3]; BV-responsive tumors, RGD microbubbles, after 3 days following treatment) was greater than 95%, the “decrease in mean rtma” value (SK-NEP-1 tumors [3]; BV-treated SK-NEP-1, by day 5) was 99±5% and the “difference in rtma decay rates, BV-treated vs control” value (SK-NEP-1 tumors [3]; SK-NEP-1, exponential decay model, days 0-5) was “statistically different”. For the same substance, the “αvβ3 integrin binding of RGD-bearing microbubbles in the tumor region” value (SK-NEP-1 tumors [3]; treated SK-NEP mice, three days following BV administration) was “significant drop”, the “decrease in microvessel density (MVD) compared to day 0 controls” value (SK-NEP-1 tumors [4]; BV-treated SK-NEP-1 tumors, day 1) was 66% and the total vessel length (SK-NEP-1 tumors [4]; SK-NEP-1, days 1, 3, 5) was “significantly decreased”. The “total vascular branch number” value (SK-NEP-1 tumors [4]; SK-NEP-1, days 3 and 5) was “significantly decreased”, the “increase in mean rmp” value (NGP tumors [5]; by day 1) was 38±21% and the “increase in mean rmp” value (NGP tumors [5]; by day 3) was 57±48%. The “increase in mean rmp” value (NGP tumors [5]; by day 5) was 105±41%, the “slopes of the linear regression of rmp, BV-treated vs control” value (NGP tumors [5]; NGP cohorts, days 0 to 5, linear mixed-effects model) was “no difference” and the “difference in rtma decay rates, BV-treated vs control” value (NGP tumors [6]) was “no difference was observed”.

Reference: US20130251633A1, “SYSTEMS, METHODS, AND DEVICES FOR ULTRASONIC ASSESSMENT OF CANCER AND RESPONSE TO THERAPY” (The Trustees of Columbia University in the City of New York, priority 2010, published 2013)
